How the values were obtained:
[1] = Human liver microsomal clearance; format: in vitro ADME; settings: both sexes, liver microsomes, Table B, 0.5 μM compound, 0.25 mg/mL microsomes, NADPH, 37° C., read-out: Human liver microsomal intrinsic clearance CLint
Procedure: Pooled mixed gender human liver microsomes were purchased from BioIVT at a concentration of 20 mg protein/mL and stored at −80° C. Incubations were conducted in V-bottomed 350 μL polypropylene 96-well plates. Compounds were diluted in phosphate buffer (final concentrations 0.5 μM compound, 0.5% DMSO) and mixed with diluted liver microsomes (fc 0.25 mg/mL). This mixture was aliquoted onto the assay plate (six wells per compound) and pre-warmed at 37° C. for ten minutes. Addition of NADPH (fc 0.5 mM, final incubation volume 100 μL) to each well started the time course. Reactions were stopped at 0.5, 3, 5, 10, 20 & 30 minutes by addition of 150 μL acetonitrile containing internal standard (IS; 0.125 μg/mL daidzein) and stopped samples were removed to a clean polypropylene plate. At the end of the assay the plate was refrigerated for an hour and then centrifuged at 3000 rpm for 10 minutes at 4° C. A sample of the supernatant was removed to a fresh plate and diluted 10-fold with 50:50 acetonitrile:water, then heat sealed. Analysis was by liquid chromatography coupled with tandem mass spectrometry (LC-MS/MS) for analyte and IS levels. Ratios of the analyte and IS peak areas were generated for results calculation (IS ratio). Dextromethorphan and verapamil were included in each experiment as controls for high clearance compounds. IS ratio data were converted into natural log values which were plotted against time and a linear regression fit applied. The slope of the line was returned and converted into the elimination constant (kel) by multiplying by −1. The elimination constant was used to calculate the in vitro CLint: in vitro CLint (μL/min/mg protein) is kel* (1000/protein conc in mg/mL).

human Kv7.2 = human Kv7.2 (Homo sapiens (Human), UniProt O43526); assay: SyncroPatch 384 electrophysiology, CHO cells stably expressing human Kv7.2; format: cell-based
Chain of human Kv7.2 (O43526 whole entry): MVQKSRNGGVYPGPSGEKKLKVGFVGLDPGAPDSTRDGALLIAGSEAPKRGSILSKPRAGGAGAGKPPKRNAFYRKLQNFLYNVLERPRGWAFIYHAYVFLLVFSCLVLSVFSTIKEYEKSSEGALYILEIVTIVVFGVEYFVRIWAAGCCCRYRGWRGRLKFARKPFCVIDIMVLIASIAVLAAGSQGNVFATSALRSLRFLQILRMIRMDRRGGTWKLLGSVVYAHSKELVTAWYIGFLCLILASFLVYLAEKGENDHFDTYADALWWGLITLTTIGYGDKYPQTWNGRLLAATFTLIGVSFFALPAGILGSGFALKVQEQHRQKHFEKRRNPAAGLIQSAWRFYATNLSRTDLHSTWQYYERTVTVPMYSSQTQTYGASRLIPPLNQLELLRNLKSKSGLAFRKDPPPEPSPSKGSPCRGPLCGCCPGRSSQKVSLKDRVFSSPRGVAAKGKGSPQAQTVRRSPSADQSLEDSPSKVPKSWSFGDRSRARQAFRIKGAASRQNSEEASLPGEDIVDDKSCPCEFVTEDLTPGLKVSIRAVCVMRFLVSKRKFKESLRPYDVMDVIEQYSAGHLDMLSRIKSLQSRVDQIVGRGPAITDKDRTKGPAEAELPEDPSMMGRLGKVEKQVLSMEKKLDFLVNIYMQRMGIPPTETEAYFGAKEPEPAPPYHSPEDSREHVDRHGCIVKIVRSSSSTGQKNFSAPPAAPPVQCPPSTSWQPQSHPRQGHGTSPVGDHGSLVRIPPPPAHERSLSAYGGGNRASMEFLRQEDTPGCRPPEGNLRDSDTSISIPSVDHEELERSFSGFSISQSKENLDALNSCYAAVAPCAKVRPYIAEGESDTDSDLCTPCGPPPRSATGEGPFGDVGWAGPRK
Procedure: (§1) The potency of Kv7 potentiators was determined using the SyncroPatch 384 (Nanion) high throughput electrophysiology platform.
(§2) CHO cells stably expressing either human Kv7.2, Kv7.4 or Kv7.5/7.3 under a constitutive CMV promoter were used for these studies. Cells were maintained in F12 Hams+1 mM L-glutamine (Hyclone) supplemented with 10% FBS (Sigma), 0.3×NEAA (Non-essential Gamino-acids) and 400 ug/ml G418 at 37° C. in 5% CO2. Cells were cultured in T-225 flasks (Nunc) for 2-3 days to reach 85-95% confluence prior to electrophysiological recording.
(§3) Earle's balanced salt solution (in mM): 135 NaCl, 5.4 KCl, 5 Glucose, 2 CaCl2, 1 MgCl2, 5 HEPES, pH 7.4. Seal enhancer solution (in mM): 90 NaCl, 3 KCl, 35 CaCl2, 10 MgCl2, 10 HEPES, pH 7.4. Extracellular recording solution (in mM): 71 NaCl, 70 NMDG, 13 KCl, 5 Glucose, 2 CaCl2, 1 MgCl2, 10 HEPES, pH 7.4. Intracellular recording solution (in mM): 130 KF, 20 KCl, 4 EGTA, 10 HEPES, 2 EDTA, 0.01 Escin, pH 7.2.
(§4) Cells were harvested for electrophysiological recording upon reaching appropriate confluence. Cells were first washed in DPBS (Hyclone, Cat #SH30028.03) and then 2 ml of Accutase (MP Biomedicals #1000449) was added at 28° C. until ˜90% of cells were suspended. F12 HAM's media+1 mM L-glutamine (Hyclone, SH30026.02) was then added to the flask to dilute the accutase. Cells were then triturated until a single cell suspension was achieved, a cell count was performed, and cells were centrifuged for 2 min. at 1,000 rpm. Media was then aspirated, and cells were resuspended in Earle's balanced salt solution to a concentration of 0.75×10^6 cells/ml and allowed to recover for 25 min at 10° C.
(§5) At the beginning of each assay, 20 μl of cell suspension was dispensed into each well of a multi-hole 384-well SyncroPatch chip by the onboard pipettor. Cell sealing was initiated, and seal enhancer solution was added to facilitate seal formation. Upon completion of sealing, cells were washed 3 times with extracellular recording solution and the assay voltage protocol was started. Human Kv7.2, Kv7.4 or Kv7.5/7.3 channels were evaluated using a voltage protocol in which cells were voltage-clamped at a holding potential of −60 mV. Potassium currents were continuously activated with a series of three voltage steps to −30 mV for 3 seconds, 40 mV for 1 second and −90 mV for 4 seconds with 12 seconds between successive voltage sweeps. Potassium currents were measured from the −90 mV repolarizing step. Baseline current was assessed for 3.5 minutes prior to the addition of 5.6 μM zinc pyrithione (1 μM for Kv7.4). Kv7.2, Kv7.4 or Kv7.5/7.3 current in the presence of zinc pyrithione was acquired over five minutes to allow channels to reach steady state activity prior to addition of test agents. Channel activity was monitored for three minutes preceding the addition of 30 μM ML-213 (3 minutes) to achieve maximum activation.
(§6) Data were collected on the SyncroPatch platform using PatchControl software (Nanion) and processed and analyzed using DataControl Software (Nanion). Percent activation was calculated from potassium current as follows: The average current for the 5 sweeps in the presence of zinc pyrithione immediately preceding test agent addition was taken as the ‘control’ data. Likewise, the average potassium current in the presence of test agents 5 sweeps immediately preceding addition of 30 μM ML-213 was determined for ‘drug’ data. The average potassium current 5 sweeps immediately prior to addition of 150 mM TEA+10 μM XE-991 was determined for ‘max activation’ data while average currents from 5 sweeps immediately following addition of TEA was determined for ‘max inhibition’ data. Percent activation for each of the 384-wells of a sealchip was calculated as ((‘drug’−‘max inhibition’)/(‘max activation’−‘max inhibition’))*100 with Pipeline Pilot (Accelrys). […]

human Kv7.5/7.3 = human Kv7.5/7.3 (Homo sapiens (Human), UniProt O43525+Q9NR82); assay: SyncroPatch 384 electrophysiology, CHO cells stably expressing human Kv7.5/7.3; format: cell-based; settings: Table A; for Kv7.5/7.3/Kv7.2 selectivity ratio: Kv7.5/7.3 EC50 over Kv7.2 EC50
Chain of human Kv7.5/7.3 (Q9NR82 whole entry): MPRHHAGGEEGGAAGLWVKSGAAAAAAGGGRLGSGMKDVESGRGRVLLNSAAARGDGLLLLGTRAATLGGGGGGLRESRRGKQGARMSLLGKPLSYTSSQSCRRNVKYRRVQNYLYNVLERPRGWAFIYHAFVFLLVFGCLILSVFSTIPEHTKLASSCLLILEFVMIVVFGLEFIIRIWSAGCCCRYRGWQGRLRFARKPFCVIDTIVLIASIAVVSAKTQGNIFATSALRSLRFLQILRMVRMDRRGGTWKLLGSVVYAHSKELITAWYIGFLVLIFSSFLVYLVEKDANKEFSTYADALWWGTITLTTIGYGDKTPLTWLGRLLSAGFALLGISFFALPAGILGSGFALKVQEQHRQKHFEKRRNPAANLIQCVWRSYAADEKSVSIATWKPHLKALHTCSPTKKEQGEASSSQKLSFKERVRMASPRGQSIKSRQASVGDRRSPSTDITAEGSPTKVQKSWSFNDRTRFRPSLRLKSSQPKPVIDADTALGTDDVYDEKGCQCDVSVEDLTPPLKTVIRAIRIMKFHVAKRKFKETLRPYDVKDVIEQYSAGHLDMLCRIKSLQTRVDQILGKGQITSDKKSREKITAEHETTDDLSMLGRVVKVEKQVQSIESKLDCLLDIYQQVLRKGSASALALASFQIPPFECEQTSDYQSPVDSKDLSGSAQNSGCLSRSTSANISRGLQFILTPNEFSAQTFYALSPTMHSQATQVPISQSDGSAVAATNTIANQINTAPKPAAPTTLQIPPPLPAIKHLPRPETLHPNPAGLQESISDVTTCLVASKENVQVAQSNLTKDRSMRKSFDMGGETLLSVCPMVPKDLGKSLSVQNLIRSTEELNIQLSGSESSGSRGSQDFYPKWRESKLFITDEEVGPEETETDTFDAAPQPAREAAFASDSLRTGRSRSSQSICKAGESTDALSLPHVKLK
Chain of human Kv7.5/7.3 (O43525 whole entry): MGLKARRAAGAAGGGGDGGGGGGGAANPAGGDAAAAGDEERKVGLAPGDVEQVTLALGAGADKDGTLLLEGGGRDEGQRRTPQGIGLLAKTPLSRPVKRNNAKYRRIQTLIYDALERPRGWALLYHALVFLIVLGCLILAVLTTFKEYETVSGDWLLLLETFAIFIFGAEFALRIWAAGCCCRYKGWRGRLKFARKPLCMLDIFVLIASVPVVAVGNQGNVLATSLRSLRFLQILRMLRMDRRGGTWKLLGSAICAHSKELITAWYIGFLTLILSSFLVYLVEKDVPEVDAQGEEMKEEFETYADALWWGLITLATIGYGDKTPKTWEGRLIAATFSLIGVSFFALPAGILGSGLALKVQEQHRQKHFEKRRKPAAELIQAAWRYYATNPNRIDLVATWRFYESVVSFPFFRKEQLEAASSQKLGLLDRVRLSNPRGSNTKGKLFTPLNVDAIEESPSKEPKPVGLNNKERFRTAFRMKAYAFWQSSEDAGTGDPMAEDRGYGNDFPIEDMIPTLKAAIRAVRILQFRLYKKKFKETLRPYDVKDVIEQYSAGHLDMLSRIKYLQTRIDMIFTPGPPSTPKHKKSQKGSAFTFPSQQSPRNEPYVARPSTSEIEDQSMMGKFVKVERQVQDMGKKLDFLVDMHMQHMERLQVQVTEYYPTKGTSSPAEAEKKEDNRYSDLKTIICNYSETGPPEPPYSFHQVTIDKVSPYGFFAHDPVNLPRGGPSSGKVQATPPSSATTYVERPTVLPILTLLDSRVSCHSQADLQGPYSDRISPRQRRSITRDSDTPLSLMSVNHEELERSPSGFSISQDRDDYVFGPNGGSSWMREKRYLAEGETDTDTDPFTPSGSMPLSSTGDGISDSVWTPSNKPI
Procedure: as §1, §2, §3, §4, §5, §6

human Kv7.4 = human Kv7.4 (Homo sapiens (Human), UniProt P56696); assay: SyncroPatch 384 electrophysiology, CHO cells stably expressing human Kv7.4; format: cell-based; settings: Table C; for Kv7.4/Kv7.2 selectivity ratio: Kv7.4 EC50 over Kv7.2 EC50
Chain of human Kv7.4 (P56696 whole entry): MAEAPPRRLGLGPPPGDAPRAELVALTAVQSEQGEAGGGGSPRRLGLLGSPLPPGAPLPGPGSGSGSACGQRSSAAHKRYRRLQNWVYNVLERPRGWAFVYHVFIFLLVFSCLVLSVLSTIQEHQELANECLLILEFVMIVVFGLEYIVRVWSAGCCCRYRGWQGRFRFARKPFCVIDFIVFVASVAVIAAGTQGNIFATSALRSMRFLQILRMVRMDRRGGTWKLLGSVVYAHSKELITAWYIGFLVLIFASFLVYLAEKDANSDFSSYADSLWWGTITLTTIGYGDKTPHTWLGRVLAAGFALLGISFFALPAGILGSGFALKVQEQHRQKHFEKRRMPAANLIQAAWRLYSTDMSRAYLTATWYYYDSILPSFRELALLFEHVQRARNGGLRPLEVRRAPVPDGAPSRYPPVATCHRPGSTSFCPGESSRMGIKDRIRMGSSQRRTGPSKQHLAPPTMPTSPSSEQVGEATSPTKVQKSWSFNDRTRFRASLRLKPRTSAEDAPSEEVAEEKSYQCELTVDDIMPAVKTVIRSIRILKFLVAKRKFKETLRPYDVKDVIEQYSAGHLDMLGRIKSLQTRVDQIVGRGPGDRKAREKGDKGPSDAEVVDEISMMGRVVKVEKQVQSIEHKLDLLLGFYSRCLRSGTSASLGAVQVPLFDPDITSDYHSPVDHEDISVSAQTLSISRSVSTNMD
Procedure: as §1, §2, §3
Cells were harvested for electrophysiological recording upon reaching appropriate confluence. Cells were first washed in DPBS (Hyclone, Cat #SH30028.03) and then 2 ml of Accutase (MP Biomedicals #1000449) was added at 28° C. until ˜90% of cells were suspended. F12 HAM's media+1 mM L-glutamine (Hyclone, SH30026.02) was then added to the flask to dilute the accutase. […]
At the beginning of each assay, 20 μl of cell suspension was dispensed into each well of a multi-hole 384-well SyncroPatch chip by the onboard pipettor. […] Human Kv7.2, Kv7.4 or Kv7.5/7.3 channels were evaluated using a voltage protocol in which cells were voltage-clamped at a holding potential of −60 mV. […] Potassium currents were measured from the −90 mV repolarizing step. Baseline current was assessed for 3.5 minutes prior to the addition of 5.6 μM zinc pyrithione (1 μM for Kv7.4). […] Channel activity was monitored for three minutes preceding the addition of 30 μM ML-213 (3 minutes) to achieve maximum activation.
as §6, with “data.” for “data. Percent activation for each of the 384-wells of a sealchip was calculated as ((‘drug’−‘max inhibition’)/(‘max activation’−‘max inhibition’))*100 with Pipeline Pilot (Accelrys).”

[2] = Table 1, CHO cells, potassium current at -90 mV step, in presence of zinc pyrithione

| Structure (SMILES) | microsomal CLint at 0.5 μM [1] [µL/min/mg] | EC50 (human Kv7.2; [2]) [nM] | EC50 (human Kv7.2; Table A) [nM] | EC50 (human Kv7.5/7.3) [nM] | Kv7.5/7.3/Kv7.2 selectivity ratio (human Kv7.5/7.3) | EC50 (human Kv7.4) [nM] | Kv7.4/Kv7.2 selectivity ratio (human Kv7.4) | EC50 (human Kv7.2; Table C) [nM] |
| --- | --- | --- | --- | --- | --- | --- | --- | --- |
| O=C(NCc1ccnc(OC(F)F)c1)NC1CCOC2(CCCC2)C1 (stereo not shown) [Example 14, 1-[[2-(difluoromethoxy)pyridin-4-yl]methyl]-3-(6-oxaspiro[4.5]decan-9-yl)urea] | 20 | 260 | 260 | > 30000 | >116 | – | – | – |
| O=C(NCc1ccnc(OC(F)F)c1)NC1CCOC2(CCCC2(F)F)C1 (stereo not shown) [Example 21, 1-[[2-(difluoromethoxy)pyridin-4-yl]methyl]-3-(4,4-difluoro-6-oxaspiro[4.5]decan-9-yl)urea] | 20.4 | 210 | 210 | > 30000 | >146 | > 30000 | >143 | 210 |
| O=C(NCc1ccnc(OC(F)F)c1)NC1CCOC2(CCC2)C1 (stereo not shown) [Example 17, 1-[[2-(difluoromethoxy)pyridin-4-yl]methyl]-3-(5-oxaspiro[3.5]nonan-8-yl)urea] | 3.8 | 340 | – | > 30000 | >87 | – | – | – |

Now from value to molecule:

| microsomal CLint at 0.5 μM [1] [µL/min/mg] | EC50 (human Kv7.2; [2]) [nM] | EC50 (human Kv7.2; Table A) [nM] | EC50 (human Kv7.5/7.3) [nM] | Kv7.5/7.3/Kv7.2 selectivity ratio (human Kv7.5/7.3) | EC50 (human Kv7.4) [nM] | Kv7.4/Kv7.2 selectivity ratio (human Kv7.4) | EC50 (human Kv7.2; Table C) [nM] | Structure (SMILES) |
| --- | --- | --- | --- | --- | --- | --- | --- | --- |
| 14.2 | 740 | – | > 30000 | >41 | – | – | – | O=C(NCc1ccnc(OC(F)F)c1)N[C@H]1CC2(CCC2)[C@@H]1O (racemic) [Example 25, 1-[[2-(difluoromethoxy)pyridin-4-yl]methyl]-3-[rac-(2R,3R)-3-hydroxyspiro[3.3]heptan-2-yl]urea] |
| 18.8 | 140 | – | – | – | – | – | – | O=C(NCc1ccnc(OC(F)F)c1)NC1CCC2(CC1)CC2(F)F (stereo not shown) [Example 31, 1-[[2-(difluoromethoxy)pyridin-4-yl]methyl]-3-(2,2-difluorospiro[2.5]octan-6-yl)urea] |
| 20.5 | 260 | 260 | > 30000 | >115 | > 30000 | >115 | 260 | O=C(NCc1ccnc(OC(F)F)c1)N[C@@H]1CCOC2(CCC2)C1 [Example 27, 1-[[2-(difluoromethoxy)pyridin-4-yl]methyl]-3-[(8R)-5-oxaspiro[3.5]nonan-8-yl]urea] |

— patent US20240316020A1, “Novel Pyridine Compounds” (ICAGEN, LLC, priority 2021, published 2024)
